What was measured:
human D2 receptor = biological target: T1, human D2 receptor (Homo sapiens, UniProt P14416); experiment: Radioligand binding to cloned human D2 receptor expressed in HEK-293 EBNA cells ([3H]-spiperone); settings: HEK293 EBNA cell membranes, approximately 0.7 nM [3H]-spiperone, 1 h at RT
T1 construct: expressed in transfected cells; host or cells: HEK293 EBNA cells, transient transfection; membrane preparation
Method: (§1) HEK293 EBNA cells were transiently transfected with expression plasmids encoding for the human D2 or D3 or for the human 5-HT2A receptor, respectively. The cells were harvested 48 h post-transfection, washed three times with cold PBS and stored at −80° C. prior to use. The pellet was suspended in cold 50 mM Tris-HCl buffer comprising 10 mM EDTA (pH 7.4) and was homogenized with a Polytron (Kinematica A G, Basel, Switzerland) for 20-30 sec at 12.000 rpm. After centrifugation at 48.000×g for 30 min at 4° C., the pellet was resuspended in cold 10 mM Tris-HCl buffer comprising 0.1 mM EDTA (pH 7.4), homogenized, and centrifuged as above. This pellet was further resuspended in a smaller volume of ice cold 10 mM Tris-HCl buffer comprising 0.1 mM EDTA (pH 7.4) and homogenized with a Polytron for 20-30 sec at 12.000 rpm. The protein content of this homogenate was determined with the Bio-Rad (Bradford) Protein Assay (Biorad Laboratories GmbH, München, Germany) according to the instructions of the manufacturer using gamma globulin as the standard. This homogenate was stored at −80° C. in aliquots and thawed immediately prior to use.
(§2) Aliquots of membrane preparations were thawed at RT, resupended in assay buffer (D2, D3: 50 mM Tris-HCl, 120 mM NaCl, 5 mM MgCl2, 1 mM EDTA, 5 mM KCl, 1.5 mM CaCl2, pH=7.4; 5-HT2A: 50 mM Tris-HCl, 10 mM MgCl2, 1 mM EGTA, pH=7.4), homogenized with a Polytron for 20-30 sec at 12.000 rpm and adjusted to a final concentration of approximately 7.5 μg protein/well (D2, D3) and 15 μg protein/well (5-HT2A), respectively.
(§3) The binding affinity (Ki) of the compounds was determined using radioligand binding. Membranes were incubated in a total volume of 200 μl with a fixed concentration of radioligand (final concentration approximately 0.7 nM [^3H]-spiperone for D2, 0.5 nM [^3H]-spiperone for D3, and 1.1 nM [^3H]-ketanserin for 5-HT2A) and ten concentrations of test compound in ranging between 10 μM-0.1 nM for 1 h at RT. At the end of the incubation, the reaction mixtures were filtered on to unifilter 96-well white microplates with bonded GF/C filters (Packard BioScience, Zürich, Switzerland; preincubated for 1 h in 0.1% polyethylenimine (PEI) in assay buffer) with a Filtermate 196 harvester (Packard BioScience) and washed 3 times with cold assay buffer. The nonspecific binding was determined with equally composed reaction mixtures in the presence of 10 μM unlabelled spiperone. Per well 45 μl of Microscint 40 (Perkin Elmer, Schwerzenbach, Switzerland) was added, plates for sealed, shaken for 20 min and counted for 3 min on a Topcount Microplate Scintillation Counter (Can berra Packard S A, Zürich, Switzerland) with quenching correction.
(§4) The CPM value for each duplicate of a concentration of competing compound was averaged (y1), then the % specific binding was calculated according to the equation (((y1−non-specific)/(total binding−non-specific))×100). Graphs were plotted with the % specific binding using XLfit, a curve fitting program that iteratively plots the data using Levenberg-Marquardt algorithm. The single site competition analysis equation used was y=A+((B−A)/(1+((x/C)D))), where y is the % specific binding, A is the minimum y, B is the maximum y, C is the IC50, x is the log 10 of the concentration of the competing compound and D is the slope of the curve (the Hill Coefficient). […] The affinity constant (Ki) was calculated using the Cheng-Prusoff equation Ki=(IC50/1+([L]/Kd), where [L] is the concentration of radioligand and Kd is the dissociation constant of the radioligand at the receptor as determined by the saturation isotherm.

human 5-HT2A receptor = human 5-HT2A receptor (Homo sapiens, UniProt P28223); experiment: Radioligand binding to cloned human 5-HT2A receptor expressed in HEK-293 EBNA cells ([3H]-ketanserin)
human 5-HT2A receptor, sequence (P28223 whole entry): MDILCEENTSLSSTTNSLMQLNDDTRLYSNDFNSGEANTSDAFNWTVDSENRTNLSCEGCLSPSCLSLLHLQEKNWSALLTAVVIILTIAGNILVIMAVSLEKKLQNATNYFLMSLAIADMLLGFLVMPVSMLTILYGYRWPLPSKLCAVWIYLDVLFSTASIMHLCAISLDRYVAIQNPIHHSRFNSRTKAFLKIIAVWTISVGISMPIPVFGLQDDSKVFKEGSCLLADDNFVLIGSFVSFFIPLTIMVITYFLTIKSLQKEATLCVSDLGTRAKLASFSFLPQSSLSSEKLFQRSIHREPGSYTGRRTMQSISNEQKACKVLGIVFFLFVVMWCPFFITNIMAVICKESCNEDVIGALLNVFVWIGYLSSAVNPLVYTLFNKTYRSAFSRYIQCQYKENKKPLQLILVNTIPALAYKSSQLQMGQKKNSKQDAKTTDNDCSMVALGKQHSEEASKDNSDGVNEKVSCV
Method: as §1, §2, §3, §4

human D3 receptor = human D3 receptor (Homo sapiens, UniProt P35462); experiment: Radioligand binding to cloned human D3 receptor expressed in HEK-293 EBNA cells ([3H]-spiperone)
human D3 receptor, sequence (P35462 whole entry): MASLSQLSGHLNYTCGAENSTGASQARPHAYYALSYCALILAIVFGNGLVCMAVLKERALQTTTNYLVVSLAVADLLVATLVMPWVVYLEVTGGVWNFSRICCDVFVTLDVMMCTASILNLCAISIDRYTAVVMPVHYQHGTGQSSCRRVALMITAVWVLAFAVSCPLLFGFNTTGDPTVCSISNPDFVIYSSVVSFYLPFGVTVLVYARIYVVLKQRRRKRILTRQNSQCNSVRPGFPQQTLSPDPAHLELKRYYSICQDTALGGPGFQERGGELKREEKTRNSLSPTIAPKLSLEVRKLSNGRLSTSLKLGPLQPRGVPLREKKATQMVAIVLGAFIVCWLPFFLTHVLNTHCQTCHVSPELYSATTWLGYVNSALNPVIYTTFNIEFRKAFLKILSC
Method: as §1, §2, §3, §4

T1 sequence (P14416 whole entry): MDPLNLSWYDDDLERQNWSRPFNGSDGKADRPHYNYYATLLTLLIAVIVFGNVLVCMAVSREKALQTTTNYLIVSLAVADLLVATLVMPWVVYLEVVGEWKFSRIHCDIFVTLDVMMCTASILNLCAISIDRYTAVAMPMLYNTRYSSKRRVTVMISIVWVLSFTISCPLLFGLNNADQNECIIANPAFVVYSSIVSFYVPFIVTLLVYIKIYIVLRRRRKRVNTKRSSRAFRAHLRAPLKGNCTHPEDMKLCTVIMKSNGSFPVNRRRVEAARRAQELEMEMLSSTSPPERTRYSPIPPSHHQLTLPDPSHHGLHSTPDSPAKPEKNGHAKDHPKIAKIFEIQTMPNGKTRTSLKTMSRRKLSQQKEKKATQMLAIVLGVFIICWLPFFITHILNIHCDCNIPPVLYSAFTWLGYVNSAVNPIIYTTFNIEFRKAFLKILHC

| SMILES | Ki (human D2 receptor) | Ki (human 5-HT2A receptor) | melting point | Ki (human D3 receptor) |
| --- | --- | --- | --- | --- |
| O=C(N[C@H]1CC[C@H](CCN2CCN(c3nccc4c3OCC4)CC2)CC1)c1ccc(N2CCOCC2)nc1 [Example 73, trans-N-(4-{2-[4-(2,3-Dihydro-furo[2,3-c]pyridin-7-yl)-piperazin-1-yl]-ethyl}-cyclohexyl)-6-morpholin-4-yl-nicotinamide] | 479 nM | 22.4 nM | 231 °C | 15 nM |
| O=C(Cc1noc2ccccc12)N[C@H]1CC[C@H](CCN2CCN(c3nccc4c3OCC4)CC2)CC1 [Example 75, trans-2-Benzo[d]isoxazol-3-yl-N-(4-{2-[4-(2,3-dihydro-furo[2,3-c]pyridin-7-yl)-piperazin-1-yl]-ethyl}-cyclohexyl)-acetamide] | 628 nM | 45.7 nM | 211 °C | 6.28 nM |
| CC(C)(C)Oc1ccc(C(=O)N[C@H]2CC[C@H](CCN3CCN(c4nccc5c4OCC5)CC3)CC2)cc1 [Example 76, trans-4-tert-Butoxy-N-(4-{2-[4-(2,3-dihydro-furo[2,3-c]pyridin-7-yl)-piperazin-1-yl]-ethyl}-cyclohexyl)-benzamide] | 814 nM | 44.3 nM | 168.5 °C | 33.3 nM |
| O=C(N[C@H]1CC[C@H](CCN2CCN(c3nccc4c3OCC4)CC2)CC1)c1ccc2ncccc2c1 [Example 77, Quinoline-6-carboxylic acid trans-(4-{2-[4-(2,3-dihydro-furo[2,3-c]pyridin-7-yl)-piperazin-1-yl]-ethyl}-cyclohexyl)-amide] | 432 nM | 35.4 nM | 211.5 °C | 9.44 nM |
| O=C(N[C@H]1CC[C@H](CCN2CCN(c3nccc4c3OCC4)CC2)CC1)c1cnc(N2CCOCC2)cn1 [Example 78, 5-Morpholin-4-yl-pyrazine-2-carboxylic acid trans-(4-{2-[4-(2,3-dihydro-furo[2,3-c]pyridin-7-yl)-piperazin-1-yl]-ethyl}-cyclohexyl)-amide] | 670 nM | 29.6 nM | 200.5 °C | 42.5 nM |
| O=C(CCC(F)(F)F)N[C@H]1CC[C@H](CCN2CCN(c3nccc4c3OCC4)CC2)CC1 [Example 84, trans-N-(4-{2-[4-(2,3-Dihydro-furo[2,3-c]pyridin-7-yl)-piperazin-1-yl]-ethyl}-cyclohexyl)-4,4,4-trifluoro-butyramide] | 1410 nM | 112 nM | 204.5 °C | 14.2 nM |
| CC(C)(C)CC(=O)N[C@H]1CC[C@H](CCN2CCN(c3nccc4c3OCC4)CC2)CC1 [Example 89, trans-N-(4-{2-[4-(2,3-Dihydro-furo[2,3-c]pyridin-7-yl)-piperazin-1-yl]-ethyl}-cyclohexyl)-3,3-dimethyl-butyramide] | 435 nM | 58.8 nM | 193 °C | 15.1 nM |
| CC(C)(C)C(=O)N[C@H]1CC[C@H](CCN2CCN(c3nccc4c3OCC4)CC2)CC1 [Example 90, trans-N-(4-{2-[4-(2,3-Dihydro-furo[2,3-c]pyridin-7-yl)-piperazin-1-yl]-ethyl}-cyclohexyl)-2,2-dimethyl-propionamide] | 671 nM | 48.9 nM | 194.5 °C | 50.5 nM |
| C[C@]1(O)CC[C@H](C(=O)N[C@H]2CC[C@H](CCN3CCN(c4nccc5c4OCC5)CC3)CC2)CC1 [Example 91, trans-4-Hydroxy-4-methyl-cyclohexanecarboxylic acid trans-(4-{2-[4-(2,3-dihydro-furo[2,3-c]pyridin-7-yl)-piperazin-1-yl]-ethyl}-cyclohexyl)-amide] | 481 nM | 32 nM | 172.5 °C | 18.6 nM |

Next, values leading:

| Ki (human D2 receptor) | Ki (human 5-HT2A receptor) | melting point | Ki (human D3 receptor) | SMILES |
| --- | --- | --- | --- | --- |
| 270 nM | 19.1 nM | 235 °C | 7.61 nM | O=C(N[C@H]1CC[C@H](CCN2CCN(c3nccc4c3OCC4)CC2)CC1)c1ccc(-c2cccnc2)cc1 [Example 71, trans-N-(4-{2-[4-(2,3-Dihydro-furo[2,3-c]pyridin-7-yl)-piperazin-1-yl]-ethyl}-cyclohexyl)-4-pyridin-3-yl-benzamide] |
| 633 nM | 24.6 nM | 262.5 °C | 17.8 nM | N#Cc1ccc(C(=O)N[C@H]2CC[C@H](CCN3CCN(c4nccc5c4OCC5)CC3)CC2)cc1 [Example 72, trans-4-Cyano-N-(4-{2-[4-(2,3-dihydro-furo[2,3-c]pyridin-7-yl)-piperazin-1-yl]-ethyl}-cyclohexyl)-benzamide] |
| 145 nM | 23.1 nM | 260.5 °C | 9.47 nM | O=C(N[C@H]1CC[C@H](CCN2CCN(c3nccc4c3OCC4)CC2)CC1)c1ccc(N2CCS(=O)(=O)CC2)cc1 [Example 74, trans-N-(4-{2-[4-(2,3-Dihydro-furo[2,3-c]pyridin-7-yl)-piperazin-1-yl]-ethyl}-cyclohexyl)-4-(1,1-dioxo-1λ6-thiomorpholin-4-yl)-benzamide] |
| 623 nM | 15.7 nM | 250 °C | 37.5 nM | O=C(N[C@H]1CC[C@H](CCN2CCN(c3nccc4c3OCC4)CC2)CC1)C1(O)CCC1 [Example 79, 1-Hydroxy-cyclobutanecarboxylic acid trans-(4-{2-[4-(2,3-dihydro-furo[2,3-c]pyridin-7-yl)-piperazin-1-yl]-ethyl}-cyclohexyl)-amide] |
| 362 nM | 19 nM | 212 °C | 12.2 nM | CS(=O)(=O)c1ccc(C(=O)N[C@H]2CC[C@H](CCN3CCN(c4nccc5c4OCC5)CC3)CC2)s1 [Example 81, 5-Methanesulfonyl-thiophene-2-carboxylic acid trans-(4-{2-[4-(2,3-dihydro-furo[2,3-c]pyridin-7-yl)-piperazin-1-yl]-ethyl}-cyclohexyl)-amide] |
| 616 nM | 60.2 nM | 227 °C | 9.89 nM | O=C(N[C@H]1CC[C@H](CCN2CCN(c3nccc4c3OCC4)CC2)CC1)C1CC1(F)F (stereo partly drawn) [Example 85, 2,2-Difluoro-cyclopropanecarboxylic acid trans-(4-{2-[4-(2,3-dihydro-furo[2,3-c]pyridin-7-yl)-piperazin-1-yl]-ethyl}-cyclohexyl)-amide] |
| 434 nM | 38.8 nM | 176 °C | 7.33 nM | CC#CC(=O)N[C@H]1CC[C@H](CCN2CCN(c3nccc4c3OCC4)CC2)CC1 [Example 86, But-2-ynoic acid trans-(4-{2-[4-(2,3-dihydro-furo[2,3-c]pyridin-7-yl)-piperazin-1-yl]-ethyl}-cyclohexyl)-amide] |
| 939 nM | 73.6 nM | 170 °C | 6.64 nM | C/C=C/CC(=O)N[C@H]1CC[C@H](CCN2CCN(c3nccc4c3OCC4)CC2)CC1 [Example 87, (E)-Pent-3-enoic acid trans-(4-{2-[4-(2,3-dihydro-furo[2,3-c]pyridin-7-yl)-piperazin-1-yl]-ethyl}-cyclohexyl)-amide] |
| 201 nM | 59.5 nM | 183.5 °C | 9.4 nM | CC(C)=CC(=O)N[C@H]1CC[C@H](CCN2CCN(c3nccc4c3OCC4)CC2)CC1 [Example 88, 3-Methyl-but-2-enoic acid trans-(4-{2-[4-(2,3-dihydro-furo[2,3-c]pyridin-7-yl)-piperazin-1-yl]-ethyl}-cyclohexyl)-amide] |

Reference: patent publication US8470828B2, “Anellated pyridine compounds” (Hoffmann-La Roche Inc., priority 2010, dated 2013)
